According to patent US20070142397A2, “PHENYPIPERAZINE DERIVATIVES WITH A COMBINATION OF PARTIAL DOPAMINE-D2 RECEPTOR AGONISM AND SEROTONIN REUPTAKE INHIBITION” (SOLVAY PHARMECEUTICALS B.V., priority 2004, published 2007):
pKi: −log10 of the molar value. Structures can show the parent of a compound that is named as a salt. Where two headings read alike, the source gives them in different places.

Experiments:
dopamine-D2 receptors = molecular target: T1, dopamine-D2 receptors (Rattus norvegicus, UniProt P61169); test: In vitro affinity for dopamine-D2 receptors ([3H]-spiroperidol receptor binding assay, Creese et al.); conditions: for Ki: receptor binding, read-out: Dopamine-D2 binding pKi (converted)
T1 construct: labels dopamine receptors in rat pituitary and brain; from tissue; host or cells: rat brain / pituitary membranes (from the title of the cited method)
Experimental: In Vitro Affinity for Dopamine-D2 Receptors
Affinity of the compounds for dopamine-D2 receptors was determined using the receptor binding assay described by I. Creese, R. Schneider and S. H. Snyder: “[^3H]-Spiroperidol labels dopamine receptors in rat pituitary and brain”, Eur. J. Pharmacol., 46, 377-381, 1977.
(§1) The affinity of the compounds of the invention for dopamine-D2 receptors and serotonine reuptake sites was determined as described above. From the binding affinity measured for a given compound of formula (1), one can estimate a theoretical lowest effective dose. At a concentration of the compound equal to twice the measured Ki-value, 100% of the receptors likely will be occupied by the compound. Converting that concentration to mg of compound per kg of patient yields a theoretical lowest effective dose, assuming ideal bioavailability. Pharmacokinetic, pharmacodynamic, and other considerations may alter the dose actually administered to a higher or lower value. The dosage expediently administered is 0.001-1000 mg/kg, preferably 0.1-100 mg/kg of patient's bodyweight.

serotonin reuptake sites = molecular target: T2, serotonin reuptake sites (Rattus norvegicus, UniProt P31652); test: In vitro affinity for serotonin reuptake sites ([3H]-paroxetine binding assay, Habert et al.); conditions: for Ki: receptor binding, read-out: 5-HT reuptake binding pKi (converted)
T2 construct: from tissue; host or cells: rat cortical membranes (from the title of the cited method)
Experimental: In Vitro Affinity for Serotonin Reuptake Sites
Affinity of the compounds for serotonin reuptake sites was determined using the receptor binding assay described by E. Habert et al.,: “Characterisation of [^3H]-paroxetine binding to rat cortical membranes”, Eur. J. Pharmacol., 118, 107-114, 1985.
as §1

[1] = molecular target: T3, Human dopamine D2,L receptors (Homo sapiens, UniProt P14416); test: Inhibition of forskolin-induced [3H]-cAMP accumulation in CHO-K1 cells; type: cell-based; conditions: Cloned human dopamine D2,L receptors, full agonist ε=1, full antagonist ε=0
T3 construct: host or cells: CHO-K1
Experimental: Inhibition of Forskolin-Induced [^3H]-cAMP Accumulation
The in vitro functional activity at dopamine-D2 receptors, including the intrinsic activity (ε) of the compounds of the invention was measured by their ability to inhibit forskolin-induced [^3H]-cAMP accumulation.
Human dopamine D2,L receptors were Cloned in fibroblast cell line CHO-K1 cells and obtained from Dr. Grandy, Vollum Institute, Portland, Oreg., USA. CHO cells were grown in a Dulbecco's modified Eagle's medium (DMEM) culture medium, supplemented with 10% heat-inactivated fetal calf serum, 2 mM glutamine, 1 mM pyruvate, 5000 units/ml penicillin, 5000 μg/ml streptomycin and 200 μg/ml G-418 at 37° C. in 93% air/7% CO2. For incubation with test compounds, confluent cultures grown in 24 wells plates were used. Each condition or substance was routinely tested in quadruplicate. Cells were loaded with 1 μci [^3H]-adenine in 0.5 ml medium/well. After 2 hours, cultures were washed with 0.5 ml PBS containing 1 mM of the phospho-diesterase inhibitor isobutylmethylxanthine (IBMX) and incubated for 20 min with 0.5 ml PBS containing 1 mM IBMX and forskolin with or without test compound. After aspiration the reaction was stopped with 1 ml trichloroacetic acid 5% (w/v). […] 0.8 ml Extract was passed over Dowex (50WX-4 200-400 mesh) and aluminumoxide columns, eluted with water and 0.1M imidazole (pH=7.5). Eluates were mixed with 7 ml Insta-gel and radioactivity was counted with a liquid scintillation counter. The conversion of [^3H]-ATP into [^3H]-cAMP was expressed as the ratio in percentage radioactivity in the cAMP fraction as compared to combined radioactivity in both cAMP and ATP fractions, and basal activity was subtracted to correct for spontaneous activity.
Test compounds were obtained as 10 mM stock solutions in 100% DMSO, and diluted in PBS/IBMX to final concentrations. Typically, compounds were used in concentrations that ranged from 10^−10M to 10^−5M. From quadruplicate data counts, the mean was taken as an estimate for drug-induced, receptor-mediated effects at specified second messenger accumulation, expressed as percentage of control values (forskolin-stimulated cAMP accumulation, subtracted by basal activity). By using the non-linear curve-fitting program INPLOT or the Excel-add-in XL-Fit, mean values were plotted against drug concentration (in molar) and a sigmoid curve (four-parameter logistic curve) was constructed. The maximal forskolin-induced stimulated conversion is taken as maximum value and the maximal inhibition (usually at drug concentrations 10^−6 M or 10^−5 M) as minimum and these values were fixed during the fitting process. Thus, concentrations of the compound, causing 50% of the maximally obtained inhibition of forskolin-induced cAMP accumulation (EC50), are averaged over several experiments and presented as mean pEC50±SEM. Antagonist potency is assessed by co-incubating cells with a fixed agonist concentration and specified antagonist concentrations. Curve fitting procedures are identical to those used for estimating EC50 values. Thus IC50 values, i.e. the concentration that is able to achieve 50% of maximal antagonism that can be achieved by this compound. IC50 values are corrected using a Cheng-Prussoff equation, correcting it for agonist concentration and EC50 values that is obtained in the same experiment. Thus, Kb=IC50/(1+[agonist]/EC50, agonist).The corresponding pA2 value is −log (Kb). Concentration-response curve fitting allows estimation of pEC50 values and of maximal achievable effect (intrinsic activity or efficacy (ε). A full receptor agonist has ε=1, a full receptor antagonist has ε=0, and a partial receptor agonist has an intermediate intrinsic activity.

T1 sequence (P61169 whole entry): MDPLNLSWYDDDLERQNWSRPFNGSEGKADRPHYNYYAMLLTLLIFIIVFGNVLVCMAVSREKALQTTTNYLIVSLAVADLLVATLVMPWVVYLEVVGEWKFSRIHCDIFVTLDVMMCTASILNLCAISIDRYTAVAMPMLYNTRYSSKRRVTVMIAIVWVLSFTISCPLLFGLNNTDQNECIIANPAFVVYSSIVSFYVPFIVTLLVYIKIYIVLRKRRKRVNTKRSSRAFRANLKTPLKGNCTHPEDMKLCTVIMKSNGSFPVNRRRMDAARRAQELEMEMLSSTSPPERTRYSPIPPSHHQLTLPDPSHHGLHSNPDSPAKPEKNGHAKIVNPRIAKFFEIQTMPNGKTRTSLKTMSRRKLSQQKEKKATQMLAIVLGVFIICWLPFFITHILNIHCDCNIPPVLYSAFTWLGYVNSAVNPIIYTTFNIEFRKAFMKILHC
T2 sequence (P31652 whole entry): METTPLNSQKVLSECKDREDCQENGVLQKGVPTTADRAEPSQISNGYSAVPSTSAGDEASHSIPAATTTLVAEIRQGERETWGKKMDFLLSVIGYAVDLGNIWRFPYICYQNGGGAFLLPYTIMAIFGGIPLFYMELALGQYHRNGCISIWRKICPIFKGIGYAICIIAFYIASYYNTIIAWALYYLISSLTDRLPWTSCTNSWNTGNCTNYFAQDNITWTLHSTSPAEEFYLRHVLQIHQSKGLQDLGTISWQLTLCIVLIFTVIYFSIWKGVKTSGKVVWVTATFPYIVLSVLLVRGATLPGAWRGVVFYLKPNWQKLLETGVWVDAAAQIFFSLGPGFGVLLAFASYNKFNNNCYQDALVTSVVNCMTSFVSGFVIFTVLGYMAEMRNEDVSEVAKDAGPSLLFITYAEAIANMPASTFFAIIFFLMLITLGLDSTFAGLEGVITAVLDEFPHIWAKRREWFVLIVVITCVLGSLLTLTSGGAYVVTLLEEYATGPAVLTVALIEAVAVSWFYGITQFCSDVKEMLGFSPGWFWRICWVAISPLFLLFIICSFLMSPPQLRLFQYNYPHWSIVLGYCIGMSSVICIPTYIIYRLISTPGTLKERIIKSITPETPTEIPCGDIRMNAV
T3 sequence (P14416 whole entry): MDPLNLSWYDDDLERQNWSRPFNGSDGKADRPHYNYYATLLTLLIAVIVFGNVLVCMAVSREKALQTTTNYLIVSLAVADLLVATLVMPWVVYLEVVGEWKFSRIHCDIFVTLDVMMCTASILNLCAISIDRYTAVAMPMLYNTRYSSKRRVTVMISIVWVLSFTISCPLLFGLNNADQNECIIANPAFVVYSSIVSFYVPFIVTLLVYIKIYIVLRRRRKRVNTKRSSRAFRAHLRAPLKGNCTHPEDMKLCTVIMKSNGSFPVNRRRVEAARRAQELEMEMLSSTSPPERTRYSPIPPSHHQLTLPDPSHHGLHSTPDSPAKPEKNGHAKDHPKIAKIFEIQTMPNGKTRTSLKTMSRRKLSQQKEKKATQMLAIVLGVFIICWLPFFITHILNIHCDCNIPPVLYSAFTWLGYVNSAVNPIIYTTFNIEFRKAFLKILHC

melting point | Ki (dopamine-D2 receptors) [nM] | Ki (serotonin reuptake sites) [nM] | Dopamine-D2 cAMP accum ∈ (intrinsic activity) [1] | SMILES | pKi (dopamine-D2 receptors) | pKi (serotonin reuptake sites)
207 to 209 °C | – | – | – | CC(CCc1c[nH]c2ccc(F)cc12)N1CCN(c2cccc3c2oc(=O)n3C)CC1 (centres unmarked) (as salt: HCl) [compound 2] | – | –
– | 158 | 1 | – | CC(CCc1c[nH]c2ccc(F)cc12)N1CCN(c2cccc3c2oc(=O)n3C)CC1 (centres unmarked) [compound 2] | – | –
– | 20 | 5.01 | 0.13 | C[C@@H]1CN(c2cccc3[nH]c(=O)oc23)C[C@H](C)N1CCCc1c[nH]c2ccc(F)cc12 [compound 1] | – | –
– | 31.6 | > 10 | 0.44 | Cn1cc(CCCN2CCN(c3cccc4c3oc(=O)n4C)CC2)c2cc(F)ccc21 [compound 8] | – | –
– | 79.4 | 0.316 | – | Cn1c(=O)oc2c(N3CCN(CCCc4c[nH]c5ccc(F)cc45)CC3)cc(F)cc21 [compound 15] | – | –
270 to 275 °C | – | – | – | C[C@@H]1CN(c2cccc3[nH]c(=O)oc23)C[C@H](C)N1CCCc1c[nH]c2ccc(F)cc12 (as salt: HCl) [compound 1] | – | –
246 to 249 °C | – | – | – | Cn1c(=O)oc2c(N3CCN(CCCc4c[nH]c5ccc(F)cc45)CC3)cc(F)cc21 (as salt: HCl) [compound 15] | – | –
– | 39.8 | < 1 | 0.15 | CCn1c(=O)oc2c(N3CCN(CCCc4c[nH]c5ccc(F)cc45)CC3)cccc21 [compound 16] | – | –
238 to 240 °C (dec.) | 15.8 | 5.01 | 0.32 | Fc1ccc2[nH]cc(CCCN3CCN(c4cccc5[nH]c(=S)oc45)CC3)c2c1 [compound 17] | – | –
140 to 142 °C | 200 | 2.51 | 0.15 | Cn1cc(CCCN2CCN(c3cccc4c3oc(=O)n4C)CC2)c2cc(Cl)ccc21 [compound 7] | – | –
213 to 215 °C | – | – | – | Cn1c(=O)oc2c(N3CCN(CCCCc4c[nH]c5ccc(C#N)cc45)CC3)cccc21 (as salt: HCl) [compound 12] | – | –
100 to 140 °C | – | – | – | CCn1c(=O)oc2c(N3CCN(CCCc4c[nH]c5ccc(F)cc45)CC3)cccc21 (as salt: HCl) [compound 16] | – | –
100 to 140 °C (dec.) | – | – | – | CC(CCN1CCN(c2cccc3c2oc(=O)n3C)CC1)c1c[nH]c2ccc(F)cc12 (centres unmarked) (as salt: HCl) [compound 3] | – | –
254 to 256 °C | – | – | – | Cn1c(=O)oc2c(N3CCN(CCCCc4c[nH]c5ccc(F)cc45)CC3)cccc21 (as salt: HCl) [compound 11] | – | –
151 to 152 °C | 126 | 3.98 | 0.66 | Cn1c(=O)oc2c(N3CCN(CCCc4c[nH]c5ccc(C#N)cc45)CC3)cccc21 [compound 10] | – | –
135 to 137 °C | 79.4 | 7.94 | 0.12 | Cn1c(=O)oc2c(N3CCN(CCCc4c[nH]c5ccc(F)cc45)CC3)cccc21 [compound 9] | – | –
– | 7.94 | < 1 | 0.75 | Cn1c(=O)oc2c(N3CCN(CCCCc4c[nH]c5ccc(C#N)cc45)CC3)cccc21 [compound 12] | – | –
– | 100 | 0.794 | 0.43 | CC(CCN1CCN(c2cccc3c2oc(=O)n3C)CC1)c1c[nH]c2ccc(F)cc12 (centres unmarked) [compound 3] | – | –
159 to 162 °C | – | – | 0.52 | Cc1cc(Cl)cc2c(CCCN3CCN(c4cccc5c4oc(=O)n5C)CC3)c[nH]c12 [compound 6] | – | –
166 to 168 °C | 7.94 | 2.51 | 0.22 | CC(Cc1c[nH]c2ccc(F)cc12)CN1CCN(c2cccc3c2oc(=O)n3C)CC1 (centres unmarked) [compound 4] | – | –
– | 25.1 | > 10 | 0.72 | Cn1c(=O)oc2c(N3CCN(CCCCc4c[nH]c5ccc(F)cc45)CC3)cccc21 [compound 11] | – | –
> 225 °C (dec.) | – | – | – | Cn1cc(CCCN2CCN(c3cccc4c3oc(=O)n4C)CC2)c2cc(F)ccc21 (as salt: HCl) [compound 8] | – | –

SMILES | melting point | Ki (dopamine-D2 receptors) [nM] | Ki (serotonin reuptake sites) [nM] | Dopamine-D2 cAMP accum ∈ (intrinsic activity) [1] | pKi (dopamine-D2 receptors) | pKi (serotonin reuptake sites)
Cn1c(=O)oc2c(N3CCN(CCc4c[nH]c5ccc(F)cc45)CC3)cccc21 [compound 13] | 198 to 200 °C | – | – | 0.22 | 8.40 | 8.50
